This is an account of results in US20120107417A1, “Effective Antitumor Treatments” (PHARMA MAR, S.A., priority 2000, published 2012).

The nature of data set [1]: Biodistribution/PK of DOX with ET-743 in nude mice with tumor xenografts. Format: in vivo. Particulars: DOX alone vs concomitant treatment with ET-743. The text has this: ET-743 has shown activity in patients with sarcoma refractory to DOX and ifosfamide. In view of its potential as an effective drug, we investigated (1) the preclinical anti-tumor activity of ET-743/DOX combination against the human rhabdomyosarcoma TE 671 and (2) possible interactions between the drugs and their biodistribution in nude mice and tumor xenografts.
The pharmacokinetic (PK) evaluation of ET-743 given alone or in combination with DOX is underway.

Another data set relates to UV2237/ADR. Nature of the data set: ET-743/doxorubicin against mdr-resistant subline UV2237/ADR in mice. The format is in vivo, murine. To be noted: alone or combination.
The test system of a further data set is TE 671 cells. The experiment in a line: Clonogenic assay ET-743/DOX, TE 671. Format: cell-based, human. Particulars: 1 hr exposures, isobologram analysis and Combination Index. On the procedure: In vitro: The effect of each drug or combination after 1 hr exposures was evaluated by clonogenic assay.
The subject of data set [2] is murine fibrosarcoma UV2237. Nature of the data set: ET-743/doxorubicin against murine fibrosarcoma UV2237 in mice. The format is in vivo. Particulars: alone or combination.
Another data set relates to HT-1080 cells. The experiment in a line: Cell cycle analysis (propidium iodide, FACS), HT-1080. Format: cell-based, human. On the procedure:
(§1) Exponentially growth cells were treated with or without drugs for several hours. Cells were then collected and fixed with ice-cold 70% methanol. DNA was stained with propidium iodide as described previously. Ten thousand stained cells were analyzed on a Becton Dickinson fluorescence-activated cell sorter (FACS).

A further data set relates to HS-18 cells. The experiment in a line: Cell cycle analysis (propidium iodide, FACS), HS-18. Format: cell-based, human. As to the method:
as §1

Data set [3] concerns human rabdomyosarcoma zenograft TE671. Nature of the data set: ET-743/doxorubicin against TE671 xenograft in athymic (nude) mice. The format is in vivo. On the procedure:
In vivo: Single iv treatments (ET-743, 0.1 mg/Kg; DOX, 10 mg/Kg) were administered in nude mice when xenograft tumors weighed approximately 100 mg.

The test system of a further data set is HS-18. The experiment in a line: SRB cytotoxicity assay and Chou-Talalay combination index, HS-18. The format is cell-based, human. To be noted: Homo sapiens, 72 h; read-out: IC50 for human soft tissue sarcoma cells, HS-18. As to the method: (§2) Soft tissue sarcoma cell lines, HT-1080 and HS-18 were maintained as monolayer cultures in RP<I-1640 containing 10% fetal bovine serum.
(§3) Cytotoxicity to drugs was determined by SRB cytotoxicity assay carried out in 96-well microtiter plates as described. Cells were plated in duplicate wells (5000 cells/well) and exposed to drugs at different concentrations. Cells were fixed with 50% TCA solution for 1 h and 0.4% SRB (Sigma) was added to each well. After a 30 min incubation, the plate were washed with 1% acetic acid and read at 570 nm on a Biowhitaker microplate reader 2001. The wells with cells containing no drugs and with medium plus drugs but no cells were used as positive and negative controls, respectively.
(§4) Cells were seeded into 96-well plates, as described previously. Cells were treated with seven different concentrations of the single drugs or combinations mixture at 1:100 (ET-743: the other drugs) molar ratio. After 72 h exposure, growth inhibition was measured using the SRB assay.
(§5) Using the same experimental setup described above, we exposed cells to three different concentrations of drugs which represents the IC25, IC50, IC75 of ET-743, DXR, TMTX and paclitaxel, respectively. After 24 hours pre-treatment with ET743 or the combination drug, the second drugs were added to the respective wells for 48 h. Growth inhibition was determined using the SRB assay.)
(§6) The CI was calculated by the Chou-Talalay equation, which takes into account both potency (Dm or IC50) and the shape of the dose effect curve (the m value). The general equation for the classic isobologram (CI=1) is given by:
(§7) CI=(D)1/(Dx)1+(D)2/(Dx)2 (A)
Background: The SRB assay estimates cell density from bound dye.

Another data set relates to HT-1080. The experiment in a line: SRB cytotoxicity assay and Chou-Talalay combination index, HT-1080. Format: cell-based, human. Particulars: Homo sapiens, HT-1080, 72 h; read-out: IC50 for human soft tissue sarcoma cells, HT-1080. On the procedure: as §2, §3, §4, §5, §6, §7
Setting [4] is: 24 h after treatment with approximate IC50 dose.
[5] abbreviates: 72 h after treatment with approximate IC50 dose.
Setting [6] is: single i.v. treatment at tumor approx. 100 mg, drug alone (ET-743 0.1 mg/kg; Dx 10 mg/kg).

Broadly, the IC50 is the midpoint of a concentration-inhibition curve.

As to `COc1cccc2c1C(=O)c1c(O)c3c(c(O)c1C2=O)C[C@@](O)(C(=O)CO)C[C@@H]3O[C@H]1C[C@H](N)[C@H](O)[C@H](C)O1` [Dx, doxorubicin], the “PK profile of DOX (plasma and tumor concentrations)” value in [1] is given as “not influenced”. For the same compound, the “antitumor effect in words” value in the data set on UV2237/ADR is “inactive or marginally active”; in data set [2] it was “effective”; in data set [3] (TE671 in mice, alone or combination) it was “inactive or marginally active”. The “anti-tumor activity / interaction in clonogenic assay” value in the data set with TE 671 cells is “showed anti-tumor activity”. Moreover, the “% G1” value is 36.1% with HT-1080 cells (setting [4]), 46.2% with HT-1080 cells (setting [5]) and 1.3% in the data set with HS-18 cells (setting [5]). Moreover, the “% S phase” value with HT-1080 cells (setting [4]) is listed as 17.5%; in the data set on HT-1080 cells (setting [5]), 5.3%; in the data set with HS-18 cells (setting [4]) it was 64.9%; with HS-18 cells (setting [5]), 63.8%. Further, the “% G2-M” value was determined as 25.0% in the data set on HS-18 cells (setting [4]) and 34.9% in the data set with HS-18 cells (setting [5]). Moreover, in data set [3] (setting [6]), the “Log 10 Cell Kill (LCK)” value worked out at 0.33. Moreover, in data set [3] (setting [6]), the “tumor weight inhibition (TWI)” value was 50%. Moreover, the half-inhibitory concentration (IC50) came out at 225 nM with HS-18 and 25 nM in the data set on HT-1080.
